The experiment relates to patient diagnosed as having depression. Briefly: Case of improvement of depressive symptoms by aspiration (or inhalation) of hydrogen. The format is in vivo, human. The note with it: for symptoms (depressive symptoms, anthropophobia, insomnia) under prescribed medication: patient, Abilify intramuscular injections, Lexotan Tablet 2 and Brotizolam Tablet taken together, before hydrogen. The text has this: A patient diagnosed as having depression, who had suffered from anthropophobia and insomnia along with depressive symptoms, received intramuscular injections of Abilify™ (Otsuka Pharmaceutical Co., Ltd. (Japan); with indication of depressive disorder) prescribed by a doctor at the department of psychiatry, and took Lexotan™ Tablet 2 (Chugai Pharmaceutical Co., Ltd. (Japan); with an indications of anxiety and tension associated with depressive disorder) and Brotizolam Tablet (Choseido Pharmaceutical Co., Ltd.; with indication of insomnia); however, the symptoms were not improved. Thus, hydrogen gas (70 to 140 ml/min) was aspirated for 1 hour once or twice a day using a hydrogen aspirator (MHG-2000α™ (MiZ Company Limited)) over about half a year while the medication was continued. As a result, the number of days on which it was possible to naturally fall asleep increased (2 or 3 days a week), and the liveliness of voice was enhanced. About half a year after the start of aspiration (or inhalation) of hydrogen gas, administration of the Brotizolam Tablet was discontinued, and the amount of hydrogen gas aspirated was increased (280 ml/min for 6 hours per day). The aspiration of hydrogen gas was continued over about 3 months. As a result, the depressive symptoms were improved, and therefore the use of Abilify and Lexotan Tablet 2 was discontinued on the basis of the doctor's judgement. […] After the use of Abilify and Lexotan Tablet 2, aspiration of hydrogen gas (280 ml/min for 6 hours per day) was continued.

[1] abbreviates: hydrogen gas 280 ml/min for 6 hours per day continued after Abilify and Lexotan Tablet 2 were discontinued.

On to `O=C1CCc2ccc(OCCCCN3CCN(c4cccc(Cl)c4Cl)CC3)cc2N1` [Abilify, aripiprazole, reference compound], for which the “symptoms (depressive symptoms, anthropophobia, insomnia) under prescribed medication” value (shortened to “symptoms … under prescribed medication”) is given as “not improved”.

As to `Cc1nnc2n1-c1sc(Br)cc1C(c1ccccc1Cl)=NC2` [Brotizolam Tablet, Brotizolam, reference compound], the “symptoms … under prescribed medication” value is “not improved”.

Consider `O=C1CN=C(c2ccccn2)c2cc(Br)ccc2N1` [Lexotan Tablet 2, bromazepam, reference compound], for which the “symptoms … under prescribed medication” value was “not improved”.

Take `[HH]` [hydrogen gas, hydrogen]: under “hydrogen gas 70 to 140 ml/min aspirated 1 hour once or twice a day over about half a year, medication continued”, the liveliness of voice entry was “enhanced”. Under setting [1], the “care personnel's evaluation of the patient” value is recorded as “being much more cheerful in disposition than before”; the depressive symptoms result is “improved to the extent that the patient went outside more frequently than before, and enjoyed a life similar to a healthy person”. For the setting “hydrogen gas 280 ml/min for 6 hours per day over about 3 months, Brotizolam discontinued, Abilify and Lexotan continued”, the depressive symptoms result is reported as “improved”. The “improving effect on depressive symptoms versus amount of hydrogen gas aspirated per day” value (same patient, 70 to 140 ml/min 1 hour once or twice a day versus 280 ml/min 6 hours per day) is given as “enhanced as the amount of hydrogen gas aspirated by the patient per day increases”.

The record behind these values is patent US20200093856A1, “Hydrogen-containing composition for ameliorating depressive symptom” (MiZ Company Limited, priority 2018, published 2020).
